Measured values: US20250163104A1, “MACROCYCLIC IMMUNOMODULATORS” (priority 2021, published 2025)
*1 amine or outer side, *2 acyl side, *3 side chain or, on linkers, in order; H or OH if unused. Where a SMILES comes first, the peptide text is derived from it. Bridges are numbered along the chain shown (N, C = ends). [ ]: non-standard residue; d: D form. X5 = O=C([C@H](Cc1ccc2ncccc2c1)N[*:1])[*:2]; Bip = N[C@@H](Cc1ccc(-c2ccccc2)cc1)C(=O)O; Phe(4-CN) = N#Cc1ccc(C[C@H](N)C(=O)O)cc1; Phe(4-NH2) = Nc1ccc(C[C@H](N)C(=O)O)cc1; 4Pal = N[C@@H](Cc1ccncc1)C(=O)O; Cha = N[C@@H](CC1CCCCC1)C(=O)O; Orn = NCCC[C@H](N)C(=O)O; Dab = NCC[C@H](N)C(=O)O; Dap = NC[C@H](N)C(=O)O

target: T1, human PD-1 / PD-L1-Ig binding on Jurkat cell line over-expressing human PD-1 (Jurkat-PD-1) (Homo sapiens, UniProt Q15116); assay: Jurkat-PD-1 Cell Binding High-Content Screening Assay (CBA); format: cell-based; conditions: Jurkat-PD-1 cells, PE-labeled PD-L1-Ig 20 nM final; read-out: Jurkat HPD1_PDL1 IC50
T1 construct: expressed in transfected cells; host or cells: Jurkat
T1 sequence (Q15116 25-288): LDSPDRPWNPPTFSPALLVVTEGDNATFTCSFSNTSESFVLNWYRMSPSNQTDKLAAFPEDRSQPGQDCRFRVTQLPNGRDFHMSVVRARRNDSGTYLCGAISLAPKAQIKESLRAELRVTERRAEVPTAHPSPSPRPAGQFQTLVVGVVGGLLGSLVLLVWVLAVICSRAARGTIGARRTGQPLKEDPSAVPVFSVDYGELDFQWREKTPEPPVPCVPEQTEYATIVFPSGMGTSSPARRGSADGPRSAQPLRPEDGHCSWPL
In short: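 Cell-bound PE-labeled PD-L1-Ig (20 nM final, 1 h) measured by high-content imaging after fixation and Hoechst 33342 counterstain. Compound was applied first for 2 h at 37° C. to Jurkat cells over-expressing human PD-1 in DMEM with 10% FCS.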

| SMILES | IC50 |
| --- | --- |
| CC(C)C[C@H]1NC(=O)[C@H](CCCN)NC(=O)[C@H](CCC(=O)O)NC(=O)[C@H](Cc2ccc(-c3ccccc3)cc2)NC(=O)[C@H](C(C)C)NC(=O)[C@H](Cc2c[nH]c3ccccc23)NC(=O)[C@H](CC(=O)O)NC(=O)[C@H](Cc2ccc3ncccc3c2)NC(=O)[C@H](Cc2ccccc2)NC(=O)CSC[C@@H](C(=O)N[C@@H](C)C(N)=O)NC(=O)[C@H]([C@@H](C)O)NC(=O)[C@H](C(C)C)NC(=O)[C@H](CC2CCCCC2)NC(=O)[C@H](CCN)NC1=O [Compound 2176] ({CH2CO}-F[X5]DWV[Bip]E[Orn][dL][Dab][Cha]VTCA-NH2; thioether N-14) | 111 nM |
| CC(C)C[C@H]1NC(=O)[C@H](CCCN)NC(=O)[C@H](CCC(=O)O)NC(=O)[C@H](Cc2ccc(-c3ccccc3)cc2)NC(=O)[C@H](C(C)C)NC(=O)[C@H](Cc2c[nH]c3ccccc23)NC(=O)[C@H](CC(=O)O)NC(=O)[C@H](Cc2ccc3ncccc3c2)NC(=O)[C@H](CN)NC(=O)CSC[C@@H](C(=O)N[C@@H](C)C(N)=O)NC(=O)[C@H]([C@@H](C)O)NC(=O)[C@H](C(C)C)NC(=O)[C@H](CC2CCCCC2)NC(=O)[C@H](CCN)NC1=O [Compound 2177] ({CH2CO}-[Dap][X5]DWV[Bip]E[Orn][dL][Dab][Cha]VTCA-NH2; thioether N-14) | 128 nM |
| CC(C)C[C@H]1NC(=O)[C@H](CCCN)NC(=O)[C@H](CCC(=O)O)NC(=O)[C@H](Cc2ccc(-c3ccccc3)cc2)NC(=O)[C@H](C(C)C)NC(=O)[C@H](Cc2c[nH]c3ccccc23)NC(=O)[C@H](CC(=O)O)NC(=O)[C@H](Cc2ccc3ncccc3c2)NC(=O)[C@H](Cc2ccc(OCC(=O)O)cc2)NC(=O)CSC[C@@H](C(=O)N[C@@H](C)C(N)=O)NC(=O)[C@H]([C@@H](C)O)NC(=O)[C@H](C(C)C)NC(=O)[C@H](CC2CCCCC2)NC(=O)[C@H](CCN)NC1=O [Compound 2178] | 52.7 nM |
| CC(C)C[C@H]1NC(=O)[C@H](CCCN)NC(=O)[C@H](CCC(=O)O)NC(=O)[C@H](Cc2ccc(-c3ccccc3)cc2)NC(=O)[C@H](C(C)C)NC(=O)[C@H](Cc2c[nH]c3ccccc23)NC(=O)[C@H](CC(=O)O)NC(=O)[C@H](Cc2ccc3ncccc3c2)NC(=O)[C@H](Cc2ccncc2)NC(=O)CSC[C@@H](C(=O)N[C@@H](C)C(N)=O)NC(=O)[C@H]([C@@H](C)O)NC(=O)[C@H](C(C)C)NC(=O)[C@H](CC2CCCCC2)NC(=O)[C@H](CCN)NC1=O [Compound 2179] ({CH2CO}-[4Pal][X5]DWV[Bip]E[Orn][dL][Dab][Cha]VTCA-NH2; thioether N-14) | 65.1 nM |
| CC(C)C[C@H]1NC(=O)[C@H](CCCN)NC(=O)[C@H](CCC(=O)O)NC(=O)[C@H](Cc2ccc(-c3ccccc3)cc2)NC(=O)[C@H](C(C)C)NC(=O)[C@H](Cc2c[nH]c3ccccc23)NC(=O)[C@H](CC(=O)O)NC(=O)[C@H](Cc2ccc(N)cc2)NC(=O)[C@H](CC(N)=O)NC(=O)CSC[C@@H](C(=O)N[C@@H](C)C(N)=O)NC(=O)[C@H]([C@@H](C)O)NC(=O)[C@H](C(C)C)NC(=O)[C@H](CC2CCCCC2)NC(=O)[C@H](CCN)NC1=O [Compound 2180] ({CH2CO}-N[Phe(4-NH2)]DWV[Bip]E[Orn][dL][Dab][Cha]VTCA-NH2; thioether N-14) | 28.1 nM |
| CC(C)C[C@H]1NC(=O)[C@H](CCCN)NC(=O)[C@H](CCC(=O)O)NC(=O)[C@H](Cc2ccc(-c3ccccc3)cc2)NC(=O)[C@H](C(C)C)NC(=O)[C@H](Cc2c[nH]c3ccccc23)NC(=O)[C@H](CC(=O)O)NC(=O)[C@H](Cc2ccc(N)cc2)NC(=O)[C@H](Cc2ccccc2)NC(=O)CSC[C@@H](C(=O)N[C@@H](C)C(N)=O)NC(=O)[C@H]([C@@H](C)O)NC(=O)[C@H](C(C)C)NC(=O)[C@H](CC2CCCCC2)NC(=O)[C@H](CCN)NC1=O [Compound 2181] ({CH2CO}-F[Phe(4-NH2)]DWV[Bip]E[Orn][dL][Dab][Cha]VTCA-NH2; thioether N-14) | 26.4 nM |
| CC(C)C[C@H]1NC(=O)[C@H](CCCN)NC(=O)[C@H](CCC(=O)O)NC(=O)[C@H](Cc2ccc(-c3ccccc3)cc2)NC(=O)[C@H](C(C)C)NC(=O)[C@H](Cc2c[nH]c3ccccc23)NC(=O)[C@H](CC(=O)O)NC(=O)[C@H](Cc2ccc(N)cc2)NC(=O)[C@H](CN)NC(=O)CSC[C@@H](C(=O)N[C@@H](C)C(N)=O)NC(=O)[C@H]([C@@H](C)O)NC(=O)[C@H](C(C)C)NC(=O)[C@H](CC2CCCCC2)NC(=O)[C@H](CCN)NC1=O [Compound 2182] | 16 nM |
| CC(C)C[C@H]1NC(=O)[C@H](CCCN)NC(=O)[C@H](CCC(=O)O)NC(=O)[C@H](Cc2ccc(-c3ccccc3)cc2)NC(=O)[C@H](C(C)C)NC(=O)[C@H](Cc2c[nH]c3ccccc23)NC(=O)[C@H](CC(=O)O)NC(=O)[C@H](Cc2ccc(N)cc2)NC(=O)[C@H](Cc2ccc(OCC(=O)O)cc2)NC(=O)CSC[C@@H](C(=O)N[C@@H](C)C(N)=O)NC(=O)[C@H]([C@@H](C)O)NC(=O)[C@H](C(C)C)NC(=O)[C@H](CC2CCCCC2)NC(=O)[C@H](CCN)NC1=O [Compound 2183] | 19.4 nM |
| CC(C)C[C@H]1NC(=O)[C@H](CCCN)NC(=O)[C@H](CCC(=O)O)NC(=O)[C@H](Cc2ccc(-c3ccccc3)cc2)NC(=O)[C@H](C(C)C)NC(=O)[C@H](Cc2c[nH]c3ccccc23)NC(=O)[C@H](CC(=O)O)NC(=O)[C@H](Cc2ccc(N)cc2)NC(=O)[C@H](Cc2ccncc2)NC(=O)CSC[C@@H](C(=O)N[C@@H](C)C(N)=O)NC(=O)[C@H]([C@@H](C)O)NC(=O)[C@H](C(C)C)NC(=O)[C@H](CC2CCCCC2)NC(=O)[C@H](CCN)NC1=O [Compound 2184] | 28.5 nM |
| CC(C)C[C@H]1NC(=O)[C@H](CCCN)NC(=O)[C@H](CCC(=O)O)NC(=O)[C@H](Cc2ccc(-c3ccccc3)cc2)NC(=O)[C@H](C(C)C)NC(=O)[C@H](Cc2c[nH]c3ccccc23)NC(=O)[C@H](CC(=O)O)NC(=O)[C@H](Cc2ccc(C#N)cc2)NC(=O)[C@H](CC(N)=O)NC(=O)CSC[C@@H](C(=O)N[C@@H](C)C(N)=O)NC(=O)[C@H]([C@@H](C)O)NC(=O)[C@H](C(C)C)NC(=O)[C@H](CC2CCCCC2)NC(=O)[C@H](CCN)NC1=O [Compound 2185] ({CH2CO}-N[Phe(4-CN)]DWV[Bip]E[Orn][dL][Dab][Cha]VTCA-NH2; thioether N-14) | 28.1 nM |
| CC(C)C[C@H]1NC(=O)[C@H](CCCN)NC(=O)[C@H](CCC(=O)O)NC(=O)[C@H](Cc2ccc(-c3ccccc3)cc2)NC(=O)[C@H](C(C)C)NC(=O)[C@H](Cc2c[nH]c3ccccc23)NC(=O)[C@H](CC(=O)O)NC(=O)[C@H](Cc2ccc(C#N)cc2)NC(=O)[C@H](Cc2ccccc2)NC(=O)CSC[C@@H](C(=O)N[C@@H](C)C(N)=O)NC(=O)[C@H]([C@@H](C)O)NC(=O)[C@H](C(C)C)NC(=O)[C@H](CC2CCCCC2)NC(=O)[C@H](CCN)NC1=O [Compound 2186] ({CH2CO}-F[Phe(4-CN)]DWV[Bip]E[Orn][dL][Dab][Cha]VTCA-NH2; thioether N-14) | 45.2 nM |
| CC(C)C[C@H]1NC(=O)[C@H](CCCN)NC(=O)[C@H](CCC(=O)O)NC(=O)[C@H](Cc2ccc(-c3ccccc3)cc2)NC(=O)[C@H](C(C)C)NC(=O)[C@H](Cc2c[nH]c3ccccc23)NC(=O)[C@H](CC(=O)O)NC(=O)[C@H](Cc2ccc(C#N)cc2)NC(=O)[C@H](CN)NC(=O)CSC[C@@H](C(=O)N[C@@H](C)C(N)=O)NC(=O)[C@H]([C@@H](C)O)NC(=O)[C@H](C(C)C)NC(=O)[C@H](CC2CCCCC2)NC(=O)[C@H](CCN)NC1=O [Compound 2187] | 13.2 nM |
